Inhibition and IC50 data for 21 molecules are collected here from patent US10385057B2, “Pyrazole compounds and methods of making and using same” (Lundbeck La Jolla Research Center, Inc., priority 2015, dated 2019).

The target of one assay is T1, FAAH (Mus musculus, UniProt O08914).
T1 construct: mouse brain membrane fraction or cell lysates for mouse assays; from tissue
T1 sequence (O08914 1-579): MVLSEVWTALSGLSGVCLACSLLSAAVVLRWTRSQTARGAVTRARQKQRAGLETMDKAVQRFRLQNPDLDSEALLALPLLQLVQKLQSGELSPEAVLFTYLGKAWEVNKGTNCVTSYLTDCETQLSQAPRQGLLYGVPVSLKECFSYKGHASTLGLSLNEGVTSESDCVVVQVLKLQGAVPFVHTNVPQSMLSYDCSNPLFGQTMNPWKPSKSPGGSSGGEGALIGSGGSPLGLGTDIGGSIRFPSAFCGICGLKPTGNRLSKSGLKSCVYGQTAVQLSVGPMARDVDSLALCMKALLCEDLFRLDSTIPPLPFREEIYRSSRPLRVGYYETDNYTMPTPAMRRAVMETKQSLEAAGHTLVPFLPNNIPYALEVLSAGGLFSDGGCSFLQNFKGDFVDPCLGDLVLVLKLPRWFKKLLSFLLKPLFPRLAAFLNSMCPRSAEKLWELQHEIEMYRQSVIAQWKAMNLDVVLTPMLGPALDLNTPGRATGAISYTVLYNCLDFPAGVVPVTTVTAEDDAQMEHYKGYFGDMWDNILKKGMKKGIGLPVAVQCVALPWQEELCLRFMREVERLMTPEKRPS
Briefly: In vitro competitive activity-based protein profiling, mouse FAAH. Type of assay: biochemical. Conditions: for inhibition at 1 µM: read-out: FAAH % inh. 1 μM (mouse). Here is the method:
(§1) In Vitro Competitive Activity-Based Protein Profiling.
(§2) Proteomes (mouse brain membrane fraction or cell lysates for mouse assays; human prefrontal cortex or cell membrane fractions for human assays) (50 μL, 1.0 mg/mL total protein concentration) were preincubated with varying concentrations of inhibitors at 37° C. After 30 min, FP-Rh or HT-01 (1.0 μL, 50 μM in DMSO) was added and the mixture was incubated for another 30 min at 37° C. Reactions were quenched with SDS loading buffer (15 μL—4×) and run on SDS-PAGE. Following gel imaging, serine hydrolase activity was determined by measuring fluorescent intensity of gel bands corresponding to MAGL and FAAH using ImageJ 1.43u software.

The target of a further assay is T2, MAGL (Mus musculus, UniProt O35678).
T2 construct: mouse brain membrane fraction or cell lysates for mouse assays; from tissue
T2 sequence (O35678 1-303): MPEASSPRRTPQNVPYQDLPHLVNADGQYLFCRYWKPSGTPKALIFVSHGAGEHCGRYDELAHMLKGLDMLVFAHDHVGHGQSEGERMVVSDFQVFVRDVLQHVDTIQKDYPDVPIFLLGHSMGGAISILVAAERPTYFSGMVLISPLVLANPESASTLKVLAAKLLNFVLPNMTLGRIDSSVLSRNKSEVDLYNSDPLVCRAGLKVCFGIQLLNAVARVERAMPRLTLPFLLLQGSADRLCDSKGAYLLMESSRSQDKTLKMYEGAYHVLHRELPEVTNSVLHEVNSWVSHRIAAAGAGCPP
The assay can be described thus: In vitro competitive activity-based protein profiling, mouse MAGL. The assay is classed as biochemical. The conditions noted are these: for inhibition at 1 µM: read-out: MAGL % inh. 1 μM (mouse). As to the method: as §1, §2

The term IC50 denotes the point on the concentration scale where inhibition reaches its midpoint. High values mean weaker potency, low ones greater potency.

Some results are limits rather than exact numbers.

For `O=C(c1cnn(C(=O)N2CCC3(CCN(Cc4cccc(C(F)(F)F)c4)C3)C2)c1)N1CCCC1` (centres unmarked) [Example 31, pyrrolidin-1-yl(1-(7-(3-(trifluoromethyl)benzyl)-2,7-diazaspiro[4.4]nonane-2-carbonyl)-1H-pyrazol-4-yl)methanone], the values for the inhibition at 1 µM at FAAH and on MAGL were at least 75% and 25 to 50%, respectively.
Take `O=C(N1CCC2(CCN(Cc3cccc(Cl)c3)C2)C1)n1cc(C(F)(F)F)cn1` (centres unmarked) [Example 168, (7-(3-chlorobenzyl)-2,7-diazaspiro[4.4]nonan-2-yl)(4-(trifluoromethyl)-1H-pyrazol-1-yl)methanone]: the concentration for half-maximal inhibition (IC50) on FAAH and at MAGL was at most 100 nM throughout. The inhibition at 1 µM at FAAH and at MAGL was at least 75% in each case.
As for `O=C(N1CC2CN(Cc3cccc(F)c3)CC2C1)n1cc(C(F)(F)F)cn1` (centres unmarked) [Example 150, (5-(3-fluorobenzyl)hexahydropyrrolo[3,4-c]pyrrol-2(1H)-yl)(4-(trifluoromethyl)-1H-pyrazol-1-yl)methanone], at FAAH, the IC50 is at most 100 nM and the inhibition at 1 µM was at least 75%. Besides, at MAGL, the IC50 is at most 100 nM and the inhibition at 1 µM was at least 75%.
As to `NC(=O)c1cnn(C(=O)N2CCC3(CCN(Cc4ccc(C(F)(F)F)c(N5CCOCC5)c4)C3)C2)c1` (centres unmarked) [Example 208, 1-(7-(3-morpholino-4-(trifluoromethyl)benzyl)-2,7-diazaspiro[4.4]nonane-2-carbonyl)-1H-pyrazole-4-carboxamide], the inhibition at 1 µM at FAAH and on MAGL was at least 75% each time.
As for `NC(=O)c1cnn(C(=O)N2CC3CN(Cc4ccc(Cl)cc4)CC3C2)c1` (centres unmarked) [Example 16, 1-(5-(4-chlorobenzyl)octahydropyrrolo[3,4-c]pyrrole-2-carbonyl)-1H-pyrazole-4-carboxamide], at FAAH, the IC50 is at most 100 nM and the inhibition at 1 µM was at least 75%. For the same molecule, on MAGL, the IC50 was in the range of 100 to 1000 nM and the inhibition at 1 µM is at least 75%.
Turning to `NC(=O)c1cnn(C(=O)N2CCC3(CCN(Cc4ccc(N5CCOCC5)c(C(F)(F)F)c4)C3)C2)c1` (centres unmarked) [Example 206, 1-(7-(4-morpholino-3-(trifluoromethyl)benzyl)-2,7-diazaspiro[4.4]nonane-2-carbonyl)-1H-pyrazole-4-carboxamide], the inhibition at 1 µM on FAAH and on MAGL was at least 75% throughout.
For `CN(Cc1ccccc1Cl)[C@@H]1C[C@@H]2CN(C(=O)n3cc(C(=O)N4CCN(C5CC5)CC4)cn3)C[C@@H]2C1` [Example 87, (cis-5-((2-chlorobenzyl)(methyl)amino)hexahydrocyclopenta[c]pyrrol-2(1H)-yl)(4-(4-cyclopropylpiperazine-1-carbonyl)-1H-pyrazol-1-yl)methanone], the inhibition at 1 µM fell in the range of 0 to 25% on FAAH and 25 to 50% on MAGL.
Taken in the same sequence, the figures for `CC1COCCN1c1cc(Cl)ccc1CN1CC2CN(C(=O)n3cc(Cl)cn3)CC2C1` (centres unmarked) [Example 105, (4-chloro-1H-pyrazol-1-yl)(5-(4-chloro-2-(3-methylmorpholino)benzyl)hexahydropyrrolo[3,4-c]pyrrol-2(1H)-yl)methanone] were at least 75% and at least 75%.
Taken in the same sequence, the figures for `CNC(=O)c1cnn(C(=O)N2CC3CN(Cc4cc(Cl)cc(C(F)(F)F)c4)CC3C2)c1` (centres unmarked) [Example 26, 1-(5-(3-chloro-5-(trifluoromethyl)benzyl)octahydropyrrolo[3,4-c]pyrrole-2-carbonyl)-N-methyl-1H-pyrazole-4-carboxamide] were at least 75% and at least 75%.
Taken in the same sequence, the figures for `CN(Cc1cc(Cl)ccc1C(F)(F)F)[C@@H]1C[C@@H]2CN(C(=O)n3cc(C(N)=O)cn3)C[C@@H]2C1` [Example 219, 1-(cis-5-((5-chloro-2-(trifluoromethyl)benzyl)(methyl)amino)octahydrocyclopenta[c]pyrrole-2-carbonyl)-1H-pyrazole-4-carboxamide] were at least 75% and at least 75%.
On to `CNC(=O)c1cnn(C(=O)N2CC3CN(Cc4ccc(N5CCOCC5)cc4C(F)(F)F)CC3C2)c1` (centres unmarked) [Example 27, N-methyl-1-(5-(4-morpholino-2-(trifluoromethyl)benzyl)octahydropyrrolo[3,4-c]pyrrole-2-carbonyl)-1H-pyrazole-4-carboxamide], for which the inhibition at 1 µM on FAAH and at MAGL was at least 75% throughout.
As for `CN(Cc1cccc(Cl)c1)[C@H]1C[C@@H]2CN(C(=O)n3cc(Cl)cn3)C[C@@H]2C1` [Example 72, (4-chloro-1H-pyrazol-1-yl)(trans-5-((3-chlorobenzyl)(methyl)amino)hexahydrocyclopenta[c]pyrrol-2(1H)-yl)methanone], the IC50 at FAAH and on MAGL was at most 100 nM in each case. Also, the inhibition at 1 µM on FAAH and at MAGL was at least 75% each time.
As for `NC(=O)c1cnn(C(=O)N2CCC3(CCN(Cc4ccc(N5CCCC5)cc4Cl)C3)C2)c1` (centres unmarked) [Example 205, 1-(7-(2-chloro-4-(pyrrolidin-1-yl)benzyl)-2,7-diazaspiro[4.4]nonane-2-carbonyl)-1H-pyrazole-4-carboxamide], the inhibition at 1 µM at FAAH and at MAGL was at least 75% in each case.
As to `Cc1cc(-c2ccccc2)ccc1CN1CC2CN(C(=O)n3cc(Cl)cn3)CC2C1` (centres unmarked) [Example 121, (4-chloro-1H-pyrazol-1-yl)(5-((3-methyl-[1,1′-biphenyl]-4-yl)methyl)hexahydropyrrolo[3,4-c]pyrrol-2(1H)-yl)methanone], on FAAH, the IC50 is at most 100 nM and the inhibition at 1 µM was at least 75%. Moreover, on MAGL, the IC50 is at most 100 nM and the inhibition at 1 µM is at least 75%.
Consider `CN(Cc1ccc(C(F)(F)F)cc1)[C@H]1C[C@@H]2CN(C(=O)n3cc(Cl)cn3)C[C@@H]2C1` [Example 78, (4-chloro-1H-pyrazol-1-yl)(trans-5-(methyl(4-(trifluoromethyl)benzyl)amino)hexahydrocyclopenta[c]pyrrol-2(1H)-yl)methanone], for which, at FAAH, the IC50 was at most 100 nM and the inhibition at 1 µM is at least 75%. On MAGL, the IC50 was at most 100 nM and the inhibition at 1 µM was at least 75%.
For the molecule `O=C(c1cnn(C(=O)N2CC3CN(Cc4ccc(Cl)cc4)CC3C2)c1)N1CCCCC1` (centres unmarked) [Example 4, (5-(4-chlorobenzyl)hexahydropyrrolo[3,4-c]pyrrol-2(1H)-yl)(4-(piperidine-1-carbonyl)-1H-pyrazol-1-yl)methanone], at FAAH, the IC50 was in the range of 100 to 1000 nM and the inhibition at 1 µM is at least 75%. Further, at MAGL, the IC50 is 1000 to 10000 nM and the inhibition at 1 µM was in the range of 25 to 50%.
With `O=C(N1CCC2(CCN(Cc3ccc(Cl)c(Cl)c3)C2)C1)n1cc(Cl)cn1` (single isomer, unassigned) [Example 139, (4-chloro-1H-pyrazol-1-yl)(7-(3,4-dichlorobenzyl)-2,7-diazaspiro[4.4]nonan-2-yl)methanone], the IC50 on FAAH was at most 100 nM; at MAGL it was 100 to 1000 nM.
Take `O=C(N1CC2CN(Cc3ccc(CN4CCOCC4)cc3)CC2C1)n1cc(Cl)cn1` (centres unmarked) [Example 122, (4-chloro-1H-pyrazol-1-yl)(5-(4-(morpholinomethyl)benzyl)hexahydropyrrolo[3,4-c]pyrrol-2(1H)-yl)methanone]: on FAAH, the IC50 was in the range of 100 to 1000 nM and the inhibition at 1 µM was at least 75%. Also, at MAGL, the IC50 was 100 to 1000 nM and the inhibition at 1 µM is at least 75%.
Consider `COc1cccc(CN2CCC3(CCN(C(=O)n4cc(C(F)(F)F)cn4)C3)C2)c1` (centres unmarked) [Example 171], for which, at FAAH, the IC50 was at most 100 nM and the inhibition at 1 µM is at least 75%. In addition, on MAGL, the IC50 was in the range of 100 to 1000 nM and the inhibition at 1 µM is at least 75%.
Consider `NC(=O)c1cnn(C(=O)N2CCC3(CCN(Cc4cc(N5CCOCC5)ccc4C(F)(F)F)C3)C2)c1` (centres unmarked) [Example 212, 1-(7-(5-morpholino-2-(trifluoromethyl)benzyl)-2,7-diazaspiro[4.4]nonane-2-carbonyl)-1H-pyrazole-4-carboxamide], for which the inhibition at 1 µM on FAAH and on MAGL was at least 75% throughout.
`O=C(N1CC2CN(Cc3ccc(Cl)cc3N3CCOCC3)CC2C1)n1cc(Cl)cn1` (centres unmarked) [Example 99, (4-chloro-1H-pyrazol-1-yl)(5-(4-chloro-2-morpholinobenzyl)hexahydropyrrolo[3,4-c]pyrrol-2(1H)-yl)methanone]: the IC50 at FAAH and on MAGL was at most 100 nM each time. For the same molecule, the inhibition at 1 µM at FAAH and on MAGL was at least 75% throughout.
